# Source: PubChem BioAssay AID1963425 (Molecular Pharmacology Branch, DTP, NCI, 2024)
# Test system: 323965-272-R-J2-PDC complex spheroid growth, % test/control
# Assay: Anticancer human tumor 323965-272-R-J2-PDC patient-derived pancreatic carcinoma cell line growth inhibition [Asc]
# Details: for IC50: curve of first compound; for viability, T/C: stronger effect = lower value
# Outline: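 Tumor cells were grown as complex spheroids with human endothelial cells (HUVEC) and human mesenchymal stem cells as stroma. Agents were tested alone and in combination, in half-log steps down from the clinical Cmax, or from 10 microM where Cmax was unknown.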
# [1] = second compound 0.0316 µM, first compound 0.00316 µM
# [2] = second compound 0.0316 µM, first compound 0.01 µM
# [3] = second compound 0.0316 µM, first compound 0.0316 µM
# [4] = second compound 0.0316 µM, first compound 0.1 µM
# [5] = second compound 0.0316 µM, first compound 0.316 µM
# [6] = second compound 0.0316 µM, first compound 1 µM
# [7] = second compound 0.1 µM, first compound 0.00316 µM
# [8] = second compound 0.1 µM, first compound 0.01 µM
# [9] = second compound 0.1 µM, first compound 0.0316 µM
# [10] = second compound 0.1 µM, first compound 0.1 µM
# [11] = second compound 0.1 µM, first compound 0.316 µM
# [12] = second compound 0.1 µM, first compound 1 µM
# [13] = second compound 0.316 µM, first compound 0.00316 µM
# [14] = second compound 0.316 µM, first compound 0.01 µM
# [15] = second compound 0.316 µM, first compound 0.0316 µM
# [16] = second compound 0.316 µM, first compound 0.1 µM
# [17] = second compound 0.316 µM, first compound 0.316 µM
# [18] = second compound 0.316 µM, first compound 1 µM
# [19] = second compound 1 µM, first compound 0.00316 µM
# [20] = second compound 1 µM, first compound 0.01 µM
# [21] = second compound 1 µM, first compound 0.0316 µM
# [22] = second compound 1 µM, first compound 0.1 µM
# [23] = second compound 1 µM, first compound 0.316 µM
# [24] = second compound 1 µM, first compound 1 µM
# [25] = second compound 3.16 µM, first compound 0.00316 µM
# [26] = second compound 3.16 µM, first compound 0.01 µM
# [27] = second compound 3.16 µM, first compound 0.0316 µM
# [28] = second compound 3.16 µM, first compound 0.1 µM
# [29] = second compound 3.16 µM, first compound 0.316 µM
# [30] = second compound 3.16 µM, first compound 1 µM
# [31] = second compound 10 µM, first compound 0.00316 µM
# [32] = second compound 10 µM, first compound 0.01 µM
# [33] = second compound 10 µM, first compound 0.0316 µM
# [34] = second compound 10 µM, first compound 0.1 µM
# [35] = second compound 10 µM, first compound 0.316 µM
# [36] = second compound 10 µM, first compound 1 µM
# 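Note: compound exposure lasted 7 days starting three days after spheroid seeding.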
# 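Throughout, for viability, T/C: 100% = DMSO vehicle control wells with viability set relative to vehicle.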
structure (smiles),measurement,setting,value
CCN1CCN(Cc2ccc(Nc3ncc(F)c(-c4cc(F)c5nc(C)n(C(C)C)c5c4)n3)nc2)CC1 + Cc1c(S(C)(=O)=O)c(-c2cc(F)cc(N3CCN(c4ccc(NS(=O)(=O)c5ccc(NC(CCN6CCC(C(=O)OCCCP(=O)(O)O)CC6)CSc6ccccc6)c(S(=O)(=O)C(F)(F)F)c5)cc4)CC3)c2)c(-c2ccc(Cl)cc2)n1C(C)C,IC50,second compound 0.0316 µM,> 1000 nM
same,IC50,second compound 0.1 µM,> 1000 nM
same,IC50,second compound 0.316 µM,> 1000 nM
same,IC50,second compound 1 µM,> 1000 nM
same,IC50,second compound 3.16 µM,> 1000 nM
same,IC50,second compound 10 µM,> 1000 nM
same,"viability, T/C",[1],110%
same,"viability, T/C",[2],98.8%
same,"viability, T/C",[3],106%
same,"viability, T/C",[4],90.4%
same,"viability, T/C",[5],70.5%
same,"viability, T/C",[6],67.7%
same,"viability, T/C",[7],102%
same,"viability, T/C",[8],109%
same,"viability, T/C",[9],95.1%
same,"viability, T/C",[10],82.5%
same,"viability, T/C",[11],70.7%
same,"viability, T/C",[12],73.6%
same,"viability, T/C",[13],103%
same,"viability, T/C",[14],102%
same,"viability, T/C",[15],100%
same,"viability, T/C",[16],81%
same,"viability, T/C",[17],72.5%
same,"viability, T/C",[18],78.1%
same,"viability, T/C",[19],102%
same,"viability, T/C",[20],93.1%
same,"viability, T/C",[21],84.2%
same,"viability, T/C",[22],76.6%
same,"viability, T/C",[23],72.8%
same,"viability, T/C",[24],70.3%
same,"viability, T/C",[25],83.9%
same,"viability, T/C",[26],86.2%
same,"viability, T/C",[27],77.8%
same,"viability, T/C",[28],65.8%
same,"viability, T/C",[29],67.5%
same,"viability, T/C",[30],61.2%
same,"viability, T/C",[31],76.4%
same,"viability, T/C",[32],74.4%
same,"viability, T/C",[33],64.1%
same,"viability, T/C",[34],66.5%
same,"viability, T/C",[35],71.3%
same,"viability, T/C",[36],70.3%
Cn1ncnc1[C@H]1c2n[nH]c(=O)c3cc(F)cc(c23)N[C@@H]1c1ccc(F)cc1 + Cc1c(S(C)(=O)=O)c(-c2cc(F)cc(N3CCN(c4ccc(NS(=O)(=O)c5ccc(NC(CCN6CCC(C(=O)OCCCP(=O)(O)O)CC6)CSc6ccccc6)c(S(=O)(=O)C(F)(F)F)c5)cc4)CC3)c2)c(-c2ccc(Cl)cc2)n1C(C)C,IC50,second compound 0.0316 µM,> 100 nM
same,IC50,second compound 0.1 µM,> 100 nM
same,IC50,second compound 0.316 µM,> 100 nM
same,IC50,second compound 1 µM,> 100 nM
same,IC50,second compound 3.16 µM,> 100 nM
same,IC50,second compound 10 µM,> 100 nM
same,"viability, T/C","second compound 0.0316 µM, first compound 0.000316 µM",105%
same,"viability, T/C","second compound 0.0316 µM, first compound 0.001 µM",92.2%
same,"viability, T/C",[1],105%
same,"viability, T/C",[2],96.2%
same,"viability, T/C",[3],95.3%
same,"viability, T/C",[4],86.4%
same,"viability, T/C","second compound 0.1 µM, first compound 0.000316 µM",86.4%
same,"viability, T/C","second compound 0.1 µM, first compound 0.001 µM",102%
same,"viability, T/C",[7],97.9%
same,"viability, T/C",[8],104%
same,"viability, T/C",[9],95.4%
same,"viability, T/C",[10],92.7%
same,"viability, T/C","second compound 0.316 µM, first compound 0.000316 µM",94.8%
same,"viability, T/C","second compound 0.316 µM, first compound 0.001 µM",99.7%
same,"viability, T/C",[13],100%
same,"viability, T/C",[14],84.2%
same,"viability, T/C",[15],96.7%
same,"viability, T/C",[16],80.5%
same,"viability, T/C","second compound 1 µM, first compound 0.000316 µM",96.5%
same,"viability, T/C","second compound 1 µM, first compound 0.001 µM",89.3%
same,"viability, T/C",[19],88.8%
same,"viability, T/C",[20],87.2%
same,"viability, T/C",[21],84.3%
same,"viability, T/C",[22],66.5%
same,"viability, T/C","second compound 3.16 µM, first compound 0.000316 µM",86.6%
same,"viability, T/C","second compound 3.16 µM, first compound 0.001 µM",76.2%
same,"viability, T/C",[25],80.3%
same,"viability, T/C",[26],75.4%
same,"viability, T/C",[27],70%
same,"viability, T/C",[28],64.5%
same,"viability, T/C","second compound 10 µM, first compound 0.000316 µM",81.5%
same,"viability, T/C","second compound 10 µM, first compound 0.001 µM",73.4%
same,"viability, T/C",[31],71.8%
same,"viability, T/C",[32],69.1%
same,"viability, T/C",[33],71.1%
same,"viability, T/C",[34],59.6%
O=C(c1cc(Cc2n[nH]c(=O)c3ccccc23)ccc1F)N1CCN(C(=O)C2CC2)CC1 + Cc1c(S(C)(=O)=O)c(-c2cc(F)cc(N3CCN(c4ccc(NS(=O)(=O)c5ccc(NC(CCN6CCC(C(=O)OCCCP(=O)(O)O)CC6)CSc6ccccc6)c(S(=O)(=O)C(F)(F)F)c5)cc4)CC3)c2)c(-c2ccc(Cl)cc2)n1C(C)C,IC50,second compound 0.0316 µM,> 10000 nM
same,IC50,second compound 0.1 µM,> 10000 nM
same,IC50,second compound 0.316 µM,> 10000 nM
same,IC50,second compound 1 µM,> 10000 nM
same,IC50,second compound 3.16 µM,> 10000 nM
same,IC50,second compound 10 µM,> 10000 nM
same,"viability, T/C",[3],87.5%
same,"viability, T/C",[4],92.7%
same,"viability, T/C",[5],95.7%
same,"viability, T/C",[6],98.9%
same,"viability, T/C","second compound 0.0316 µM, first compound 3.16 µM",98.3%
same,"viability, T/C","second compound 0.0316 µM, first compound 10 µM",89%
same,"viability, T/C",[9],103%
same,"viability, T/C",[10],93%
same,"viability, T/C",[11],98.1%
same,"viability, T/C",[12],91.2%
same,"viability, T/C","second compound 0.1 µM, first compound 3.16 µM",95%
same,"viability, T/C","second compound 0.1 µM, first compound 10 µM",88.2%
same,"viability, T/C",[15],92.4%
same,"viability, T/C",[16],90.5%
same,"viability, T/C",[17],92.8%
same,"viability, T/C",[18],87.7%
same,"viability, T/C","second compound 0.316 µM, first compound 3.16 µM",91.6%
same,"viability, T/C","second compound 0.316 µM, first compound 10 µM",74.7%
same,"viability, T/C",[21],85.6%
same,"viability, T/C",[22],79.3%
same,"viability, T/C",[23],83.8%
same,"viability, T/C",[24],84.2%
same,"viability, T/C","second compound 1 µM, first compound 3.16 µM",80.8%
same,"viability, T/C","second compound 1 µM, first compound 10 µM",72.2%
same,"viability, T/C",[27],85.9%
same,"viability, T/C",[28],76.5%
same,"viability, T/C",[29],78.6%
same,"viability, T/C",[30],74.2%
same,"viability, T/C","second compound 3.16 µM, first compound 3.16 µM",78.4%
same,"viability, T/C","second compound 3.16 µM, first compound 10 µM",60.2%
same,"viability, T/C",[33],72.4%
same,"viability, T/C",[34],75.2%
same,"viability, T/C",[35],64.9%
same,"viability, T/C",[36],71.1%
same,"viability, T/C","second compound 10 µM, first compound 3.16 µM",81.1%
same,"viability, T/C","second compound 10 µM, first compound 10 µM",51.8%
O=C(c1ccc(F)c(F)c1Nc1ccc(I)cc1F)N1CC(O)([C@@H]2CCCCN2)C1 + Cc1c(S(C)(=O)=O)c(-c2cc(F)cc(N3CCN(c4ccc(NS(=O)(=O)c5ccc(NC(CCN6CCC(C(=O)OCCCP(=O)(O)O)CC6)CSc6ccccc6)c(S(=O)(=O)C(F)(F)F)c5)cc4)CC3)c2)c(-c2ccc(Cl)cc2)n1C(C)C,IC50,second compound 0.0316 µM,139 nM
same,IC50,second compound 0.1 µM,133 nM
same,IC50,second compound 0.316 µM,81.6 nM
same,IC50,second compound 1 µM,51.8 nM
same,IC50,second compound 3.16 µM,29.6 nM
same,IC50,second compound 10 µM,20.9 nM
same,"viability, T/C",[1],91%
same,"viability, T/C",[2],89.6%
same,"viability, T/C",[3],77.3%
same,"viability, T/C",[4],54.5%
same,"viability, T/C",[5],35.2%
same,"viability, T/C",[6],16.4%
same,"viability, T/C",[7],115%
same,"viability, T/C",[8],103%
same,"viability, T/C",[9],76.5%
same,"viability, T/C",[10],59.6%
same,"viability, T/C",[11],30%
same,"viability, T/C",[12],15.1%
same,"viability, T/C",[13],98.2%
same,"viability, T/C",[14],98.7%
same,"viability, T/C",[15],68.1%
same,"viability, T/C",[16],47.4%
same,"viability, T/C",[17],21.9%
same,"viability, T/C",[18],10.4%
same,"viability, T/C",[19],88.8%
same,"viability, T/C",[20],70.5%
same,"viability, T/C",[21],61.5%
same,"viability, T/C",[22],40.3%
same,"viability, T/C",[23],16.7%
same,"viability, T/C",[24],7.35%
same,"viability, T/C",[25],82%
same,"viability, T/C",[26],63.5%
same,"viability, T/C",[27],52.6%
same,"viability, T/C",[28],28.2%
same,"viability, T/C",[29],10.3%
same,"viability, T/C",[30],3.52%
same,"viability, T/C",[31],78.6%
same,"viability, T/C",[32],66.5%
same,"viability, T/C",[33],39.3%
same,"viability, T/C",[34],22.3%
same,"viability, T/C",[35],7.23%
same,"viability, T/C",[36],3.38%
